{"source": "paper PMC11111955", "about": "“Safety and efficacy evaluation of halicin as an effective drug for inhibiting intestinal infections” (Frontiers in Pharmacology, 2024)", "key": {"TA100": {"test_system": "TA100", "assay": "Ames test", "type": "cell-based, Salmonella typhimurium", "details": "TA100, -S9, 1 μg/plate", "experimental": "(§1) The experiments were performed in triplicate."}, "WP2uvApKM101": {"test_system": "WP2uvApKM101", "assay": "Ames test", "type": "cell-based, Escherichia coli", "experimental": "as §1"}, "TA97a": {"test_system": "TA97a", "assay": "Ames test", "type": "cell-based, Salmonella typhimurium", "details": "-S9, 50 μg/plate", "experimental": "as §1"}, "TA98": {"test_system": "TA98", "assay": "Ames test", "type": "cell-based, Salmonella typhimurium", "details": "TA98, -S9, 50 μg/plate", "experimental": "as §1"}, "mouse bone marrow cells": {"test_system": "mouse bone marrow cells", "details": "positive control group, 40 mg/kg cyclophosphamide"}, "[1]": {"test_system": "bone marrow polychromatic erythrocytes", "assay": "Micronucleus experiment of mammalian bone marrow cells", "details": "positive control group, 40 mg/kg cyclophosphamide"}, "Mouse spermatozoa": {"test_system": "Mouse spermatozoa", "details": "positive control group, 40 mg/kg cyclophosphamide"}}}
{"smiles": "COS(C)(=O)=O", "note": "[MSM, methyl methanesulfonate]", "values": [{"measurement": "Ames test bacterial counts", "setting": "TA100", "result": "3,042 ± 69.3"}, {"measurement": "Ames test bacterial counts", "setting": "WP2uvApKM101; WP2uvApKM101, -S9, 1 μg/plate", "result": "926 ± 45.3"}]}
{"smiles": "CN(C)c1ccc(N=NS(=O)(=O)O)cc1", "note": "[DDT, fenaminosulf]", "values": [{"measurement": "Ames test bacterial counts", "setting": "TA97a", "result": "3,451 ± 53.7"}, {"measurement": "Ames test bacterial counts", "setting": "TA98", "result": "2,985 ± 76.4"}]}
{"smiles": "Nc1ccc2cc3ccccc3cc2c1", "note": "[2-AT, 2-Aminoanthracene]", "values": [{"measurement": "Ames test bacterial counts", "setting": "WP2uvApKM101; WP2uvApKM101, +S9, 10 μg/plate", "result": "546 ± 26.9"}]}
{"smiles": "O=P1(N(CCCl)CCCl)NCCCO1", "note": "(centres unmarked) [Positive, cyclophosphamide]", "values": [{"measurement": "Chromosome aberration (%)", "setting": "mouse bone marrow cells", "result": "18.6 ± 7.67", "unit": "%"}, {"measurement": "Number of cells with chromosome aberration", "setting": "mouse bone marrow cells; of 5 × 100 cells at metaphase", "result": 93}, {"measurement": "PCE micronucleus (‰)", "setting": "[1]; Female mice", "result": "18.8 ± 1.9 ‰"}, {"measurement": "PCE/RBC", "setting": "[1]; Female mice", "result": "0.5 ± 0.04"}, {"measurement": "PCE micronucleus (‰)", "setting": "[1]; Male mice", "result": "18.8 ± 2.6 ‰"}, {"measurement": "PCE/RBC", "setting": "[1]; Male mice", "result": "0.51 ± 0.09"}, {"measurement": "Abnormal ratio (%)", "setting": "Mouse spermatozoa; male ICR mice", "result": "8.34 ± 0.47", "unit": "%"}, {"measurement": "Number of sperm abnormality", "setting": "Mouse spermatozoa; male ICR mice, of 5 × 1,000 sperms observed", "result": 417}, {"measurement": "Abnormal sperms counted ratio (%): Amorphous", "setting": "Mouse spermatozoa", "result": "48.33 ± 4.33", "unit": "%"}, {"measurement": "Abnormal sperms counted ratio (%): Banana shape", "setting": "Mouse spermatozoa", "result": "10.58 ± 1.46", "unit": "%"}, {"measurement": "Abnormal sperms counted ratio (%): Kinks tail", "setting": "Mouse spermatozoa", "result": "5.76 ± 0.94", "unit": "%"}, {"measurement": "Abnormal sperms counted ratio (%): Large round head", "setting": "Mouse spermatozoa", "result": "9.37 ± 1.03", "unit": "%"}, {"measurement": "Abnormal sperms counted ratio (%): No hook", "setting": "Mouse spermatozoa", "result": "10.07 ± 1.23", "unit": "%"}, {"measurement": "Abnormal sperms counted ratio (%): Two head", "setting": "Mouse spermatozoa", "result": "5.52 ± 1.36", "unit": "%"}, {"measurement": "Abnormal sperms counted ratio (%): Two tail", "setting": "Mouse spermatozoa", "result": "4.84 ± 1.99", "unit": "%"}]}
